Counter-ions that a name gives are not always drawn. Like-named read-outs stand apart in the source and are kept apart here.

For 24 compounds, IC50 and efflux ratio results are on record in patent US20230002361A1, “2H-INDAZOLE DERIVATIVES AND THEIR USE IN THE TREATMENT OF DISEASE” (BIOGEN MA INC., priority 2019, published 2023).

The target in one data set is T1, IRAK4 (Homo sapiens, UniProt Q9NWZ3).
T1 construct: with 0.1 nM IRAK4, 1.6 μM of biotinylated peptide substrate and 10 μM ATP
T1 sequence (Q9NWZ3 1-460): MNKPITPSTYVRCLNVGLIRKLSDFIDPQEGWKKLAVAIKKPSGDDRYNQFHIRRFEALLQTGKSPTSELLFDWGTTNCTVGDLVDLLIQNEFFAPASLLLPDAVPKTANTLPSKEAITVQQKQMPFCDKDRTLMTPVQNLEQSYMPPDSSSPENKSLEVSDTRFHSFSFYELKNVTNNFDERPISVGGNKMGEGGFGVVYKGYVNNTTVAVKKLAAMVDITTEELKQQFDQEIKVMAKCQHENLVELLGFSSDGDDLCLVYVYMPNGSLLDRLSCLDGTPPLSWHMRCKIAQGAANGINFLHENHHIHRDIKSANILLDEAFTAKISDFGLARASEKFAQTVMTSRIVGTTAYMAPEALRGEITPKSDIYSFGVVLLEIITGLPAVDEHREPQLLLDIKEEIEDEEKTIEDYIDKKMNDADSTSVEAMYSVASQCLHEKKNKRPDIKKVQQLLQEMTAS
As to the kind of experiment: IRAK4 MSD Biochemical Assay (1 mM ATP, 2 h). Particulars: room temperature. Here is the method:
The 2-hour 10 μM ATP Biochemical Assay employs a MesoScale Detection (MSD) format.
The activity is quenched with 11 μl of 70 mM EDTA, pH 8.
To detect the phosphorylated biotinylated peptide substrate, 30 μl of the quenched reaction mixture is added to equivalent wells of a 384 well streptavidin coated MesoScale plate (Meso Scale Discovery #L21SA-1). After a 1 hour incubation of the plate for 1 hour at room temperature with gentle mixing, the plate wells are washed 3 times with 50 mM Tris, pH 7.5, 150 mM NaCl, 0.02% Tween-20.
A 25 μl volume of 1:500 anti-P-Threonine Rabbit polyclonal Antibody plus 1:500 Goat-anti-Rabbit Sulfo Tag Antibody (Meso Scale Discovery R32AB-1) in 50 mM Tris, pH 7.5, 150 mM NaCl, 0.02% Tween-20 plus 2% BSA is then added to each well. After a 1-hour incubation of the plate for 1 hour at room temperature with gentle mixing, the plate wells are washed, 3 times with 50 mM Tris, pH 7.5, 150 mM NaCl, 0.02% Tween-20. A 40 μl volume of 2×MSD Read Buffer (Meso Scale Discovery R92TC-1) is added to each well, and the plate is read immediately in an MSD Plate Reader (Meso Scale Discovery).
The 2-hour 1 mM ATP IRAK4 Biochemical assay was performed as described above, but with […] IRAK4 and 1 mM ATP.

A further data set deals with T2, MDR1 (P-gp) (Homo sapiens, UniProt P08183).
T2 construct: host or cells: MDCK cells
Put plainly: MDR1-MDCK assay (efflux ratio). Type of data set: in vitro ADME. Particulars: human, MDCK-MDR1, 1 μM compound, 120 minutes incubation; read-out: MDR1-MDCK Efflux Ratio; (B-A/A-B). Here is the method:
• The assay makes use of human MDR1 transfected MDCK cells (NIH cell line in-licensed from Absorption Systems) • The compounds are tested at 1 μM concentration prepared in transport buffer (Hank's balanced salt solution with HEPES) • MDR1-MDCK cell are cultured for 7 days in 96 well transwell insert plates (Corning). Insert plates are washed before the assay and TEER (Trans epithelial electric resistance) is measured. • These plates are loaded with test compound solution 85 μL for A-B transport and 260 μL for B-A transport in the respective donor compartment.
Mass balance=100×((Vr×Cr^final)+(Vd×Cd^final))/(Vd×CE) • Where: • dCr/dt is the cumulative concentration in the receiver compartment versus time in μM s^−1 • Vr is the volume of the receiver compartment in cm^3 • Vd is the volume of the donor compartment in cm^3 • A is the area of the insert (0.143 cm^2 for 96-well insert) • CE is the estimated experimental concentration (Time=0) of the dosing solution • Cr^final is the concentration of the receiver at the end of the incubation period • Cd^final is the concentration of the donor at the end of the incubation period.

The mark [1] stands for this setting: read-out: IRAK4 MSD Biochemical Assay (1 mM ATP, 2 h) IC50.
Where [2] appears, read: IRAK4 MSD Biochemical Assay (1 mM ATP, 2 h) IC50 (nM).

T2 sequence (P08183 whole entry): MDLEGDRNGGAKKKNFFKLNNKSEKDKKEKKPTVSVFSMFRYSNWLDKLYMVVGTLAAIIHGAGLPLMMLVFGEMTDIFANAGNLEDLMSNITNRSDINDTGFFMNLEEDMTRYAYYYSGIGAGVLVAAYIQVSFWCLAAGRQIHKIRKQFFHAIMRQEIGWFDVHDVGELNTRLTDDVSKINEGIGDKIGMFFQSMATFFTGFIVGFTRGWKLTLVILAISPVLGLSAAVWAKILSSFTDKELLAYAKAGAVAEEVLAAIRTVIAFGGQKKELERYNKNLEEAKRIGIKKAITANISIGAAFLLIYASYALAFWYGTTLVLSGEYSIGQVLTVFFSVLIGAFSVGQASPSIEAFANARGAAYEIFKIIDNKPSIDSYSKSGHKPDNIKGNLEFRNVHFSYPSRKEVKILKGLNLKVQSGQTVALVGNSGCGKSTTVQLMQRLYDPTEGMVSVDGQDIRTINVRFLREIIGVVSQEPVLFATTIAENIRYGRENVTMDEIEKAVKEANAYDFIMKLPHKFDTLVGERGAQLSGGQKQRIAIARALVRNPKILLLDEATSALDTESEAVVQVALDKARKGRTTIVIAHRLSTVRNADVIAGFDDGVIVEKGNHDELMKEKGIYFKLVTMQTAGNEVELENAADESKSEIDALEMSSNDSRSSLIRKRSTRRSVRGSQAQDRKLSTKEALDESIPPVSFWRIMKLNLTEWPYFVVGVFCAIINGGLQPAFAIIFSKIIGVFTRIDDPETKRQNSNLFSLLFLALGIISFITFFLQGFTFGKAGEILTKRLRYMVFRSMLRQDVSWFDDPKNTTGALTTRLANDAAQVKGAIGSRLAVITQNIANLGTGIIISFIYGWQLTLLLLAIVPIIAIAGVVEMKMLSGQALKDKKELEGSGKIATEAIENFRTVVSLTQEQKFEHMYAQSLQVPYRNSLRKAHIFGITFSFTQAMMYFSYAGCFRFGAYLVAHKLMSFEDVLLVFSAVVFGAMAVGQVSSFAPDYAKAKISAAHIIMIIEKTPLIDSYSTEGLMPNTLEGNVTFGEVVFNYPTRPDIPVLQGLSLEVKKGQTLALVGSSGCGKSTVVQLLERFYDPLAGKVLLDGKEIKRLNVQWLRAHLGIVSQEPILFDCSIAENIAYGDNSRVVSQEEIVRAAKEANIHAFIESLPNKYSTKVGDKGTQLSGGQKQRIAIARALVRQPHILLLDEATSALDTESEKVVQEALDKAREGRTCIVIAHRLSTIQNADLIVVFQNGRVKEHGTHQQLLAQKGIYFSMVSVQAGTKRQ

As a reminder, the IC50 is the concentration at which inhibition is half-maximal. As to `CC(C)Oc1cc2nn(C34CCC(C)(C3)OC4)cc2cc1C(=O)Nc1cnn2cccnc12` (stereo not drawn) [Example 98, 6-Isopropoxy-2-(1-methyl-2-oxabicyclo[2.2.1]heptan-4-yl)-N-(pyrazolo[1,5-a]pyrimidin-3-yl)-2H-indazole-5-carboxamide], the IC50 at IRAK4 (setting [1]) was 0.5 nM. Moreover, on MDR1 (P-gp), the efflux ratio at 120 min, 1 μM came to 1. The matching figures for `Cn1cccc(NC(=O)c2cc3cn(C[C@@H]4CCOC4)nc3nc2OC2CCCC2)c1=O` (single isomer, unassigned) [Example 115]: 1 nM and 2.3. The like results for `CC(C)Oc1cc2nn(C3CCOCC3)cc2cc1C(=O)Nc1cccc2c1OCC2.Cl` [Example 73, N-(2,3-dihydrobenzofuran-7-yl)-6-isopropoxy-2-(tetrahydro-2H-pyran-4-yl)-2H-indazole-5-carboxamide hydrochloride] were, in that order, 1.8 nM and 0.7. The like results for `Cn1ccc(NC(=O)c2cc3cn(C4CCCOC4)nc3nc2OC2CCC2)n1` (single isomer, unassigned) [Example 129] were, in that order, 5.7 nM and 3.4.

Turning to `CC(C)Oc1nc2nn(C[C@H]3CCOC3)cc2cc1C(=O)Nc1cccc2ccnn12` (single isomer, unassigned) [Example 53], on IRAK4 (setting [1]), the IC50 turned out to be 1.5 nM. Also, on MDR1 (P-gp), the efflux ratio at 120 min, 1 μM came out at 1. The like results for `COc1cccc(NC(=O)c2cc3cn(CC4CCOC4)nc3cc2OC)n1.O=C(O)C(F)(F)F` (stereo not drawn) [Example 1, 6-Methoxy-N-(6-methoxypyridin-2-yl)-2-((tetrahydrofuran-3-yl)methyl)-2H-indazole-5-carboxamide Trifluoroacetate] were, in that order, 32.7 nM and 1.1. The like results for `Cc1cnc2c(NC(=O)c3cc4cn(C[C@H]5CCOC5)nc4nc3OC(C)C)cnn2c1` (single isomer, unassigned) [Example 104] were, in that order, 0.9 nM and 4.8. `CCOc1cc2nn(C34COC(C)(C3)C4)cc2cc1C(=O)Nc1cccn(C)c1=O` [Example 86, 6-Ethoxy-N-(1-methyl-2-oxo-1,2-dihydropyridin-3-yl)-2-(1-methyl-2-oxabicyclo[2.1.1]hexan-4-yl)-2H-indazole-5-carboxamide tfifluoroacetate] returned an IC50 against IRAK4 (setting [2]) of 3.7 nM. In addition, the efflux ratio at 120 min, 1 μM at MDR1 (P-gp) came out at 1.8. Turning to `COCCC(C)n1cc2cc(C(=O)Nc3cccc(C(F)F)n3)c(OC(C)C)cc2n1.Cl` (stereo not drawn) [Example 59, N-(6-(difluoromethyl)pyridin-2-yl)-6-isopropoxy-2-(4-methoxybutan-2-yl)-2H-indazole-5-carboxamide hydrochloride], the half-maximal inhibitory concentration (IC50) on IRAK4 (setting [1]) amounted to 1 nM. The efflux ratio at 120 min, 1 μM on MDR1 (P-gp) came to 0.4. The matching figures for `CC(C)Oc1cc2nn(CCC(C)(C)O)cc2cc1C(=O)Nc1cnn2cccnc12` [Example 34, 2-(3-Hydroxy-3-methylbutyl)-6-isopropoxy-N-(pyrazolo[1,5-a]pyrimidin-3-yl)-2H-indazole-5-carboxamide]: 1 nM and 14.2.

`CC(C)Oc1cc2nn(C3CCOCC3)cc2cc1C(=O)Nc1cccc2ccnn12` [Example 51, 6-Isopropoxy-N-(pyrazolo[1,5-a]pyridin-7-yl)-2-(tetrahydro-2H-pyran-4-yl)-2H-indazole-5-carboxamide]: the IC50 at IRAK4 (setting [1]) was determined as 1.3 nM. Besides, the efflux ratio at 120 min, 1 μM on MDR1 (P-gp) turned out to be 0.9. The like results for `CC(C)Oc1nc2nn(C3CCCOC3)cc2cc1C(=O)Nc1cnn2cccnc12` (stereo not drawn) [Example 36, 6-Isopropoxy-N-(pyrazolo[1,5-a]pyrimidin-3-yl)-2-(tetrahydro-2H-pyran-3-yl)-2H-pyrazolo[3,4-b]pyridine-5-carboxamide] were, in that order, 0.5 nM and 2.2. The like results for `CC(C)Oc1cc2nn(C3CCOCC3)cc2cc1C(=O)Nc1cccc(C(F)F)n1.Cl` [Example 25, N-(6-(difluoromethyl)pyridin-2-yl)-6-isopropoxy-2-(tetrahydro-2H-pyran-4-yl)-2H-indazole-5-carboxamide hydrochloride] were, in that order, 0.3 nM and 0.6. The like results for `Cc1cnc2c(NC(=O)c3cc4cn(C[C@H]5CCOC5)nc4nc3OC3CCC3)cnn2c1` (single isomer, unassigned) [Example 122] were, in that order, 0.4 nM and 4.2. As for `CC(C)Oc1cc2nn([C@]34CC[C@](C)(C3)OC4)cc2cc1C(=O)Nc1cnn2cccnc12` (single isomer, unassigned) [Example 127], the IC50 at IRAK4 (setting [1]) is 0.4 nM. The efflux ratio at 120 min, 1 μM on MDR1 (P-gp) is 1. The like results for `COc1cc2nn(C[C@H]3CCOC3)cc2cc1C(=O)Nc1cccc(C(F)F)n1` (single isomer, unassigned) [Example 18] were, in that order, 7.1 nM and 0.9. In turn, `CC(C)Oc1cc2nn(C34COC(C)(C3)C4)cc2cc1C(=O)Nc1cccn(C(F)F)c1=O` [Example 91, N-(1-(difluoromethyl)-2-oxo-1,2-dihydropyridin-3-yl)-6-isopropoxy-2-(1-methyl-2-oxabicyclo[2.1.]hexan-4-yl)-2H-indazole-5-carboxamide tfifluoroacetate] gave an IC50 against IRAK4 (setting [2]) of 0.3 nM. For the same compound, on MDR1 (P-gp), the efflux ratio at 120 min, 1 μM turned out to be 0.8. In the case of `Cn1ccc(NC(=O)c2cc3cn(C45CCC(C)(CC4)OC5)nc3cc2OC2CCC2)n1` [Example 140, 6-cyclobutoxy-N-(1-methyl-1H-pyrazol-3-yl)-2-(1-methyl-2-oxabicyclo[2.2.2]octan-4-yl)-2H-indazole-5-carboxamide], the IC50 on IRAK4 (setting [1]) amounted to 0.9 nM. The efflux ratio at 120 min, 1 μM at MDR1 (P-gp) worked out at 0.9.

Turning to `COc1ncccc1NC(=O)c1cc2cn(C34COC(C)(C3)C4)nc2cc1OC(C)C` [Example 90, 6-Isopropoxy-N-(2-methoxypyridin-3-yl)-2-(1-methyl-2-oxabicyclo[2.1.1]hexan-4-yl)-2H-indazole-5-carboxamide trifluoroacetate], the IC50 on IRAK4 (setting [1]) worked out at 0.6 nM. Further, on MDR1 (P-gp), the efflux ratio at 120 min, 1 μM turned out to be 0.7. The like results for `COc1cc2nn(C3CCOCC3)cc2cc1C(=O)Nc1ccccn1.O=C(O)C(F)(F)F` [Example 6, 6-Methoxy-N-(pyridin-2-yl)-2-(tetrahydro-2H-pyran-4-yl)-2H-indazole-5-carboxamide trifluoroacetate] were, in that order, 187 nM and 1.1. The matching figures for `CC(C)Oc1cc2nn([C@H]3CCOC(C)(C)C3)cc2cc1C(=O)Nc1cccc(C(F)F)n1` (single isomer, unassigned) [Example 47]: 0.2 nM and 1.5. As to `CC(C)Oc1cc2nn(C34CCC(C)(C3)OC4)cc2cc1C(=O)Nc1cnn2cc(F)cnc12` (stereo not drawn) [Example 100, N-(6-fluoropyrazolo[1,5-a]pyrimidin-3-yl)-6-isopropoxy-2-(1-methyl-2-oxabicyclo[2.2.1]heptan-4-yl)-2H-indazole-5-carboxamide], the IC50 at IRAK4 (setting [1]) is 1.2 nM. Still for that read-out and setting: with `Cn1ccc(NC(=O)c2cc3cn(C4CCCOC4)nc3nc2OC2CCC2)n1` (single isomer, unassigned) [Example 130] the figure was 1.7 nM. With `CC(C)Oc1cc2nn(C34COC(C)(C3)C4)cc2cc1C(=O)Nc1cccn(C)c1=O.O=C(O)C(F)(F)F` [Example 55, 6-Isopropoxy-N-(1-methyl-2-oxo-1,2-dihydropyridin-3-yl)-2-(1-methyl-2-oxabicyclo[2.1.1]hexan-4-yl)-2H-indazole-5-carboxamide Trifluoroacetate], the efflux ratio at 120 min, 1 μM at MDR1 (P-gp) is 1.2.
